The subject of experiment [1] is breast cancer MDA-MB-231 cell line. The experiment in a line: Induction of cell death, trypan blue exclusion, MDA-MB-231. In kind it is cell-based. Here is the method:
(§1) The ability of YP-337 to induce cell death was tested in the breast cancer MDA-MB-231 and ovarian cancer SK-OV-3 cell lines (Table 4). Cells were treated with YP-337 for 48 hours and cell viability was determined using the trypan blue exclusion assay.

For experiment [2], the system named is ovarian cancer SK-OV-3 cell line. Put plainly: Induction of cell death, trypan blue exclusion, SK-OV-3. The experiment is classed as cell-based. Here is the method:
as §1

Experiment [3] relates to SK-OV-3 ovarian cancer cell line. The experiment in a line: Cell growth inhibition, WST-8 assay, SK-OV-3. In kind it is cell-based. The conditions noted are these: for IC50: Homo sapiens, SK-OV-3, 96 h; for cellular activity in SK-OV-3 compared with SM-122: relative to SM-122. Here is the method: (§2) The effect of the compounds of the present invention on the growth of various cancer cell lines was tested. Cells were seeded in 96-well flat bottom cell culture plates at a density of 3000 cells/well with a tested compound and incubated at 37° C. in an atmosphere of 95% air and 5% CO2 for 4 days. […] Dojindo Molecular Technologies, Inc., Gaithersburg, Md.). […] The absorbance of the samples was measured at 450 nm using a ULTRA Tecan Reader (Molecular Device). […] The ability of SM-406 to inhibit cell growth as a single agent was tested in the MDA-MB-231 breast cancer cell line, SK-OV-3 and OVCAR-4 ovarian cancer cell lines and SK-MeI-2 melanoma cancer cell line. Cells were treated for 4 days. Cell growth was determined using a WST-based assay.
A general note: Formazan colour is commonly taken as a measure of viable cells.

Experiment [4] has as its system MDA-MB-231 human breast cancer cell line. The experiment in a line: Cell growth inhibition, WST-8 assay, MDA-MB-231. The experiment is classed as cell-based. The note with it: for IC50: Homo sapiens, MDA-MB-231, 96 h; for cellular activity in MDA-MB-231 compared with SM-122: relative to SM-122. Here is the method:
as §2

Experiment [5] concerns the target T1, XIAP BIR3 (Homo sapiens, UniProt P98170). Put plainly: Fluorescence polarization (FP) based competitive binding assay to XIAP BIR3. More on the design: human XIAP (residues 241-356) fused to His-tag; His-tag. The note with it: for IC50: FP binding, XIAP BIR3 30 nM, SM5F 5 nM. In general terms: Polarisation of emitted light reports the rotation of a fluorescent probe.
Target sequence in this assay (P98170 241-356): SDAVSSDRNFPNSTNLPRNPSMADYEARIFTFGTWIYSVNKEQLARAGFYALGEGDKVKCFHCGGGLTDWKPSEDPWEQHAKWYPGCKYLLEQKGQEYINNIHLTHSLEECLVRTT

In experiment [6] the target is T1, XIAP BIR3. The note with it: background statement; cited from earlier work.
Target sequence in this assay (P98170 241-356 limits assumed): as the sequence (P98170 241-356) above
The mark [7] stands for this setting: 4 days, WST-8, read-out: SK-OV-3 IC50.
[8] abbreviates: 4 days, WST-8, read-out: MDA-MB-231 IC50.

Read-outs that look alike come from different tables or passages of the source.

In general, IC50 refers to the concentration needed to halve the response being measured. The term Kd denotes the free concentration of one partner at which half of the binding sites on the other are occupied at equilibrium, for simple one-to-one binding.

As to `CN[C@@H](C)C(=O)N[C@H]1CN(C(=O)Cc2ccccc2)CC[C@H]2CC[C@@H](C(=O)NC(c3ccccc3)c3ccccc3)N2C1=O` [SM-337], the “Approximate % of dead cells after 48 h, MDA-MB-231” value in experiment [1] (0.1 nM) was about 10%; in experiment [1] (1 nM) it was about 35%; in experiment [1] (10 nM) it was about 60%; in experiment [1] (100 nM) it was about 75%. Further, the “Approximate % of dead cells after 48 h, SK-OV-3” value in experiment [2] (0.1 nM) is recorded as about 20%; in experiment [2] (1 nM) it was about 40%; in experiment [2] (10 nM), about 65%; in experiment [2] (100 nM), about 75%. Besides, the IC50 in experiment [3] (read-out: SK-OV-3 IC50 (μM)) and in experiment [4] (read-out: MDA-MB-231 IC50 (μM)) was under 1 µM each time. The “cellular activity in SK-OV-3 compared with SM-122” value in experiment [3] was “equal to or better than that of SM-122”. The “cellular activity in MDA-MB-231 compared with SM-122” value in experiment [4] is given as “equal to or better than that of SM-122”.
Regarding `CN[C@@H](C)C(=O)N[C@H]1CN(C(=O)CC(C)C)CC[C@H]2CC[C@@H](C(=O)NC(c3ccc(F)cc3)c3ccc(F)cc3)N2C1=O` [SM-210], the IC50 at XIAP BIR3 [5] is under 1000 nM; in experiment [3] (setting [7]), under 1 µM; in experiment [4] (setting [8]), under 1 µM.
In the case of `CN[C@@H](C)C(=O)N[C@H]1CN(Cc2ccccc2)CC[C@H]2CC[C@@H](C(=O)NC(c3ccccc3)c3ccccc3)N2C1=O` [YP-246P], the “binding affinity to XIAP BIR3 compared with SM-122” value on XIAP BIR3 [5] (relative to carbocyclic analog SM-122) is reported as “less than that of SM-122”. Moreover, the “cellular activity in SK-OV-3 compared with SM-122” value in experiment [3] is on record as “less than that of SM-122”. The IC50 in experiment [4] (read-out: MDA-MB-231 IC50 (μM)) is over 1 µM. Besides, the “cellular activity in MDA-MB-231 compared with SM-122” value in experiment [4] was “less than that of SM-122”.
On to `CN[C@@H](C)C(=O)N[C@H]1CN(C(=O)CN2CCNC(=O)C2)CC[C@H]2CC[C@@H](C(=O)NC(c3ccccc3)c3ccccc3)N2C1=O` [SM-412], for which the IC50 is under 10000 nM on XIAP BIR3 [5], over 1 µM in experiment [3] (setting [7]) and over 1 µM in experiment [4] (setting [8]).
Take `CC[C@H](NC)C(=O)N[C@H]1CN(C(=O)CC(C)C)CC[C@H]2CC[C@@H](C(=O)NC(c3ccccc3)c3ccccc3)N2C1=O` [SM-212]: the values for the IC50 (at XIAP BIR3 [5]; in experiment [3] (setting [7]); in experiment [4] (setting [8])) were under 1000 nM, under 10 µM and under 10 µM, respectively.
As for `CN[C@@H](C)C(=O)N[C@H]1CN(C(=O)C[C@H]2CC[C@H](O)C2)CC[C@H]2CC[C@@H](C(=O)NC(c3ccccc3)c3ccccc3)N2C1=O` [SM-416], the IC50 on XIAP BIR3 [5] is under 1000 nM; in experiment [3] (setting [7]), under 10 µM; in experiment [4] (setting [8]), under 10 µM.
For `CCCN[C@@H](C)C(=O)N[C@H]1CN(C(=O)CC(C)C)CC[C@H]2CC[C@@H](C(=O)NC(c3ccccc3)c3ccccc3)N2C1=O` [SM-211], the IC50 on XIAP BIR3 [5] is under 1000 nM; in experiment [3] (setting [7]), under 10 µM; in experiment [4] (setting [8]), under 10 µM.
For the molecule `CN[C@@H](C)C(=O)N[C@H]1CN(C(=O)CCC(C)C)CC[C@H]2CC[C@@H](C(=O)NC(c3ccccc3)c3ccccc3)N2C1=O` [SM-420], the IC50 at XIAP BIR3 [5] was under 1000 nM; in experiment [3] (setting [7]), under 1 µM; in experiment [4] (setting [8]), under 1 µM.
On to `CN[C@@H](C)C(=O)N[C@H]1CN(C(=O)CC(C)C)CC[C@H]2CC[C@@H](C(=O)NCc3cccc(-c4ccccc4)c3)N2C1=O` [SM-429], for which the IC50 at XIAP BIR3 [5] is under 1000 nM; in experiment [3] (setting [7]), under 10 µM; in experiment [4] (setting [8]), under 10 µM.
In the case of `CN[C@@H](C)C(=O)N[C@H]1CN(C(=O)C[C@@H]2CCOC2)CC[C@H]2CC[C@@H](C(=O)NC(c3ccccc3)c3ccccc3)N2C1=O` [SM-419], the IC50 at XIAP BIR3 [5] was under 1000 nM; in experiment [3] (setting [7]), under 10 µM; in experiment [4] (setting [8]), under 10 µM.

B1: mature Smac protein: mature Smac/DIABLO polypeptide, endogenous inhibitor of XIAP (protein, UniProt Q9NR28 22-239, looked up)
Diablo IAP-binding …: LCVPVVANFKKRCFSELIRPWHKTVTIGFGVTLCAVPIAQKSEPHSLSSEALMRRAVSLVTDSTSTFLSQTTYALIEAITEYTKAVYTLTSLYRQYTSLLGKMNSEEEDEVWQVIIGARAEMTSKHQEYLKLETTWMTAVGLSEMAAEAAYQTGADQASITARNHIQLVKLQVEEVHQLSRKAETKLAEAQIEELRQKTQEEGEERAESEQEAYLRED
As for B1, the Kd in the experiment with XIAP BIR3 [6] is 420 nM.
